Key:
[1] = system: human ovarian cancer cells (OV90); assay: BrdU incorporation assay; format: cell-based; settings: Taxol alone, 2 nM or 4 nM, FIG. 13A
Protocol: (§1) Cells were placed at 2,000 cells/well in the middle of a 96 well plate with 100 μl DMEM (life science 41965-039) and 10% fetal calf serum (FBS, Biological industries 14-127-1A) for 24 hours in an incubator at 37° C. with 5% CO2. The medium was then replaced to 200 μl DMEM with 2.5% FBS and Taxol (sigma T7402) at a final concentration of 2 nM or 4 nM in DMSO or dTCApFs (nextar ISK353-01 batch 351-01/1.68) at a final concentration of 25 μg/ml in DMSO. The medium in the control cells was replaced by DMEM and FBS as indicated above. The maximal concentration of DMSO in the cell wells was less than 0.5%. Four wells were used for each concentration.
(§2) Taxol- and dTCApFs-treated cells as well as the control cells were further incubated for 24 hours in the presence of BrdU as follows: 20 μl BrdU reagent (diluted 1:100 in DMEM supplemented with 2.5% FBS) was added to the cells and the plate was incubated 24 hours in 37° degrees incubator with 5% CO2. BrdU ELISA was performed according to the kit protocol (Millipore #2752).
(§3) Cells were placed at 2000 cells/well in the middle of a 96 well plate with 100 μl DMEM and 10% FBS for 24 hours in an incubator at 37° C. with 5% CO2. The medium was then replaced to 200 μl DMEM with 2.5% FBS and dTCApFs at a final concentration of 25 μg/ml (nextar ISK353-01 batch 351-01/1.68) in DMSO. The maximal concentration of DMSO in the cells wells was less than 0.5%. […]

[2] = system: human pancreatic cancer cells (BxPC3); assay: BrdU incorporation assay; format: cell-based; settings: Taxol alone, 2 nM or 4 nM, FIG. 13B
Protocol: as §1, §2, §3

[3] = system: human TNBC cells (human MDA231); assay: Triple negative breast cancer tumors in mice; format: in vivo, nude mice; settings: doxorubicin alone, once a week at 3 mg/kg, FIG. 14
Protocol: Therefore, 32 nude mice were inoculated subcutaneously (S.C.) with 9 million human TNBC cells (human MDA231, ATCC) per mouse. Cells were cultured as known in the art, for example, as described above. When the tumors exceeded a volume of 40 mm^3, the mice were randomly divided into five groups, as follows. The “Control” group (n=5) was treated with 5% mannitol; the “dTCApFs” group (n=5) was treated once a week with dTCApFs at 15 mg/kg; the “Dox” group (n=5) was treated once a week with doxorubicin (Sigma Aldrich) at 3 mg/kg; the “dTCApFs+Dox next day” (n=8) group was treated with dTCApFs at 15 mg/kg and 24 hours later also with doxorubicin, at 3 mg/kg; and the “dTCApFs+Dox same day” (n=9) group was treated with dTCApFs at 15 mg/kg and with doxorubicin at 3 mg/kg, on same day.

B16 cells = assay: Melanoma tumors in mice, dTCApFs and doxorubicin; format: in vivo, C57bl/6 mice; settings: doxorubicin alone, once a week at 3 mg/kg, FIG. 17
Protocol: In order to examine the effect of a combination of dTCApFs and doxorubicin on melanoma tumor volume, the following experiments were performed in mice. C57bl/6 mice (28) were inoculated SC with 0.2 million B16 cells (ATCC) per mouse. B16 melanoma is a murine tumor cell line used for research as a model for human skin cancers. When tumors exceeded a volume of 50 mm^3, the mice were randomly divided into 4 groups, as follows. “Control” group (n=6) was treated with 5% mannitol; “dTCApFs” treated group (n=6) was treated once a week with dTCApFs (at 15 mg/kg); “Dox” treated group (n=6) was treated once a week with doxorubicin (at 3 mg/kg); and dTCApFs+Dox same day” group (n=10) was treated once a week with dTCApFs and doxorubicin (at 15 mg/kg and 3 mg/kg, respectively), when both agents were administered on the same day.

Structure (SMILES) | cell viability (BrdU incorporation) [1] | cell viability (BrdU incorporation) [2] | tumor volume [3] | tumor volume (B16 cells)
CC(=O)O[C@H]1C(=O)[C@@]2(C)[C@H]([C@H](OC(=O)c3ccccc3)[C@]3(O)C[C@H](OC(=O)[C@H](O)[C@@H](NC(=O)c4ccccc4)c4ccccc4)C(C)=C1C3(C)C)[C@]1(OC(C)=O)CO[C@@H]1C[C@@H]2O [Taxol, Paclitaxel] | no effect on cell viability was observed | no effect on cell viability was observed |  | 
COc1cccc2c1C(=O)c1c(O)c3c(c(O)c1C2=O)C[C@@](O)(C(=O)CO)C[C@@H]3O[C@H]1C[C@H](N)[C@H](O)[C@H](C)O1 [doxorubicin] |  |  | clear increase in tumor volume | tumor volume clearly increased

— patent publication US11813305B2, “Endoplasmic reticulum stress as a predictive tool in cancer therapy and a combination therapy for the treatment of cancer” (IMMUNE SYSTEM KEY LTD., priority 2016, dated 2023)
